# Laboratory results reported in patent US9469616B2, “Cyclic compounds and methods of making and using the same” (Cellceutix Corporation, priority 2011, dated 2016).
# Tests used:
# Type in all cases: cell-based
# E. coli (25922) = test: MIC assay (Table 1); settings: Escherichia coli, isolate 25922
# S. aureus (27660) = test: MIC assay (Table 1); settings: Staphylococcus aureus, isolate 27660
# E. faecalis (29212) = test: MIC assay (Table 1); settings: Enterococcus faecalis, isolate 29212
# Description: (§1) The compounds are screened for antimicrobial activity against a number of clinically relevant pathogens. Minimum Inhibitory Concentrations (MIC) of each of the compounds are determined using standard procedures for clinical ocular isolates of Ciprofloxacin Susceptible (CS) S. aureus (CSSA), Ciprofloxacin Resistant (CR) S. aureus (CRSA), CS S. epidermidis (CSSE), CR S. epidermidis (CRSE), St. pneumoniae (SP), St. viridans group (SV), Moraxella Species (MS) (including Moraxella catarrhalis), H. influenzae (HI), P. aeruginosa (PA), Serratia marcescens (SM), S. aureus fluoroquinolone-susceptible, S. aureus fluoroquinolone-resistant, S. epidermidis (Coagulase-negative Staphylococcus) fluoroquinolone-susceptible, S. epidermidis (Coagulase-negative Staphylococcus) fluoroquinolone-resistant, and Serratia marcescens.
# (§2) On the day of testing, a 640 μg/m (1280 μg/m for Serratia marcescens and Pseudomonas aeruginosa) concentration is prepared from a 1% stock solution in 0.01% acetic acid, 0.2% BSA in polypropylene tubes.
# (§3) Ten μl of diluted 10× test agents is added to each well of one row of the 96 well polypropylene plates from column 2 to column 12 (column 1 is a control for bacteria alone, with no peptide). […] The same peptide is in each of the 8 rows. One plate contains dilutions of one test agent and 8 bacterial isolates.
# (§4) Ninety μl of the bacterial suspensions is dispensed in each well from column 1 to column 12. Each bacterial isolate is placed in one row of a 96 well polypropylene plate containing the test agents. The plates are placed on shaker at 15 minutes at room temperature, and then incubated at 37° C. overnight. MICs are determined visually as the lowest concentration of drug that inhibits visible bacterial growth.
# (§5) Data is expressed as MIC50 in μg/ml. The bacterial isolates were as follows: E. coli (25922); S. aureus (27660); E. faecalis (29212); P. aeruginosa (10145); and K. pneumoniae (13883).
# K. pneumoniae (13883) = test: MIC assay (Table 1); settings: Klebsiella pneumoniae, isolate 13883, read-out: MIC50 K. Pnuemnoiae
# Description: as §1, §2, §3, §4, §5
# NIH/3T3 cells = test: Cytotoxicity colorimetric assay; settings: Mus musculus, NIH3T3, 1 h, one hour incubation in serum-free media
# Description: Cytotoxicity of the compounds are evaluated in a colorimetric assay using a transformed human liver cell line (HepG2, HB-8065) and an embryonic mouse cell line (NIH/3T3 cells, CRL-1658). This assay measures the bioreduction of a novel tetrazolium compound to a soluble formazan product by viable cells. HepG2 cells are seeded in 96 well plates at 2×10^4 cells/well in MEM medium with 10% fetal bovine serum (FBS) 24 hours prior to use. NIH/3T3 cells are seeded in 96 well plates at 2×10^4 cells/well in DMEM medium with 10% bovine calf serum (BCS) 24 hours prior to use. Cell monolayers are rinsed in serum-free media and incubated for one hour with a Compound in serum-free media. After incubation, the media is replaced with serum supplemented media and live cells are measured using the Cell Titer 96 Aqueous […] Assay kit (Promega, Madison, Wis.). EC50 values are determined using a four parameter logistic equation: Y=Bottom+(Top−Bottom)/(1+10^((Log EC50−X)*HillSlope)). […] Data is expressed as EC50 in μg/ml. Cytotoxicity is evaluated in a colorimetric assay using a transformed human liver cell line (HepG2, HB-8065) and an embryonic mouse cell line (NIH/3T3 cells, CRL-1658). This assay measures the bioreduction of a novel tetrazolium compound to a soluble formazan product by viable cells. HepG2 cells are seeded in 96 well plates at 3×10^4 cells/well in MEM medium with 10% fetal bovine serum (FBS) 24 hours prior to use. NIH/3T3 cells are seeded in 96 well plates at 2×10^4 cells/well in DMEM medium with 10% bovine calf serum (BCS) 24 hours prior to use. Cell monolayers are rinsed in serum-free media and incubated for one hour with test agent in serum-free media. After incubation, the media is replaced with serum supplemented media and live cells are measured using the Cell Titer 96 Aqueous […] Assay kit (Promega, Madison, Wis.). EC50 values are determined using a four parameter logistic equation: Y=Bottom+(Top−Bottom)/(1+10^((Log EC50−X)*HillSlope)).
# P. aeruginosa (10145) = test: MIC assay (Table 1); settings: Pseudomonas aeruginosa, isolate 10145
# HepG2 = test: Cytotoxicity colorimetric assay; settings: Homo sapiens, HepG2, 1 h, one hour incubation in serum-free media
# Description: Cytotoxicity of the compounds are evaluated in a colorimetric assay using a transformed human liver cell line (HepG2, HB-8065) and an embryonic mouse cell line (NIH/3T3 cells, CRL-1658). This assay measures the bioreduction of a novel tetrazolium compound to a soluble formazan product by viable cells. HepG2 cells are seeded in 96 well plates at 2×10^4 cells/well in MEM medium with 10% fetal bovine serum (FBS) 24 hours prior to use. NIH/3T3 cells are seeded in 96 well plates at 2×10^4 cells/well in DMEM medium with 10% bovine calf serum (BCS) 24 hours prior to use. Cell monolayers are rinsed in serum-free media and incubated for one hour with a Compound in serum-free media. After incubation, the media is replaced with serum supplemented media and live cells are measured using the Cell Titer 96 Aqueous […] Assay kit (Promega, Madison, Wis.). EC50 values are determined using a four parameter logistic equation: Y=Bottom+(Top−Bottom)/(1+10^((Log EC50−X)*HillSlope)). Actual results from a representative cytotoxicity assay are shown below in Table 3. Data is expressed as EC50 in μg/ml. Cytotoxicity is evaluated in a colorimetric assay using a transformed human liver cell line (HepG2, HB-8065) and an embryonic mouse cell line (NIH/3T3 cells, CRL-1658). This assay measures the bioreduction of a novel tetrazolium compound to a soluble formazan product by viable cells. HepG2 cells are seeded in 96 well plates at 3×10^4 cells/well in MEM medium with 10% fetal bovine serum (FBS) 24 hours prior to use. NIH/3T3 cells are seeded in 96 well plates at 2×10^4 cells/well in DMEM medium with 10% bovine calf serum (BCS) 24 hours prior to use. Cell monolayers are rinsed in serum-free media and incubated for one hour with test agent in serum-free media. After incubation, the media is replaced with serum supplemented media and live cells are measured using the Cell Titer 96 Aqueous […] Assay kit (Promega, Madison, Wis.). EC50 values are determined using a four parameter logistic equation: Y=Bottom+(Top−Bottom)/(1+10^((Log EC50−X)*HillSlope)).
structure (smiles),measurement,setting,value
N=C(N)NCCCOc1cc(-c2cn(-c3cc(OCCCNC(=N)N)cc(OCCCNC(=N)N)c3)nn2)cc(-c2cn(-c3cc(OCCCNC(=N)N)cc(OCCCNC(=N)N)c3)nn2)c1 [Compound 100],MIC50,E. coli (25922),50 µg/mL
same,MIC50,S. aureus (27660),50 µg/mL
same,MIC50,E. faecalis (29212),25 µg/mL
same,MIC50,K. pneumoniae (13883),> 50 µg/mL
same,EC50,NIH/3T3 cells,23.2 µg/mL
same,MIC50,P. aeruginosa (10145),> 50 µg/mL
same,EC50,HepG2,48.6 µg/mL
NCCCOc1ccc(-n2cc(-c3cccc(-c4cn(-c5ccc(OCCCN)c(OCCCN)c5)nn4)c3)nn2)cc1OCCCN [Compound 101],MIC50,E. coli (25922),> 50 µg/mL
same,MIC50,S. aureus (27660),12.5 µg/mL
same,MIC50,E. faecalis (29212),12.5 µg/mL
same,MIC50,K. pneumoniae (13883),> 50 µg/mL
same,EC50,NIH/3T3 cells,52.4 µg/mL
same,MIC50,P. aeruginosa (10145),50 µg/mL
NCCCOc1cc(OCCCN)cc(-n2cc(-c3ccc4ccc(-c5cn(-c6cc(OCCCN)cc(OCCCN)c6)nn5)cc4c3)nn2)c1 [Compound 102],MIC50,E. coli (25922),> 50 µg/mL
same,MIC50,S. aureus (27660),12.5 µg/mL
same,MIC50,E. faecalis (29212),25 µg/mL
same,MIC50,K. pneumoniae (13883),50 µg/mL
same,EC50,NIH/3T3 cells,36.1 µg/mL
same,MIC50,P. aeruginosa (10145),> 50 µg/mL
same,EC50,HepG2,48.4 µg/mL
NCCCOc1ccc(-n2cc(-c3ccc4ccc(-c5cn(-c6ccc(OCCCN)c(OCCCN)c6)nn5)cc4c3)nn2)cc1OCCCN [Compound 103],MIC50,E. coli (25922),> 50 µg/mL
same,MIC50,S. aureus (27660),25 µg/mL
same,MIC50,E. faecalis (29212),25 µg/mL
same,MIC50,K. pneumoniae (13883),> 50 µg/mL
same,EC50,NIH/3T3 cells,32.7 µg/mL
same,MIC50,P. aeruginosa (10145),50 µg/mL
same,EC50,HepG2,55.5 µg/mL
N=C(N)NCCCOc1ccc(-n2cc(-c3ccc4ccc(-c5cn(-c6ccc(OCCCNC(=N)N)c(OCCCNC(=N)N)c6)nn5)cc4c3)nn2)cc1OCCCNC(=N)N [Compound 104],MIC50,E. coli (25922),> 50 µg/mL
same,MIC50,S. aureus (27660),25 µg/mL
same,MIC50,E. faecalis (29212),25 µg/mL
same,MIC50,K. pneumoniae (13883),> 50 µg/mL
same,EC50,NIH/3T3 cells,34.7 µg/mL
same,MIC50,P. aeruginosa (10145),50 µg/mL
same,EC50,HepG2,54 µg/mL
NCCCOc1cc(-c2cn(-c3cc(OCCCN)cc(OCCCN)c3)nn2)cc(-c2cn(-c3cc(OCCCN)cc(OCCCN)c3)nn2)c1 [Compound 105],MIC50,E. coli (25922),50 µg/mL
same,MIC50,S. aureus (27660),25 µg/mL
same,MIC50,E. faecalis (29212),> 50 µg/mL
same,MIC50,K. pneumoniae (13883),> 50 µg/mL
same,EC50,NIH/3T3 cells,83.4 µg/mL
same,MIC50,P. aeruginosa (10145),50 µg/mL
N=C(N)NCCCOc1cc(-c2cn(-c3cccc(OCCCNC(=N)N)c3)nn2)cc(-c2cn(-c3cccc(OCCCNC(=N)N)c3)nn2)c1 [Compound 106],MIC50,E. coli (25922),25 µg/mL
same,MIC50,S. aureus (27660),1.56 µg/mL
same,MIC50,E. faecalis (29212),50 µg/mL
same,MIC50,K. pneumoniae (13883),> 50 µg/mL
same,EC50,NIH/3T3 cells,191 µg/mL
same,MIC50,P. aeruginosa (10145),50 µg/mL
NCCCOc1cc(-c2cn(-c3cccc(OCCCN)c3)nn2)cc(-c2cn(-c3cccc(OCCCN)c3)nn2)c1 [Compound 107],MIC50,E. coli (25922),> 50 µg/mL
same,MIC50,S. aureus (27660),50 µg/mL
same,MIC50,E. faecalis (29212),25 µg/mL
same,MIC50,K. pneumoniae (13883),> 50 µg/mL
same,EC50,NIH/3T3 cells,131 µg/mL
same,MIC50,P. aeruginosa (10145),25 µg/mL
NCCCOc1cc(OCCCN)cc(-c2cc(-c3cc(OCCCN)cc(OCCCN)c3)cc(-c3cc4ccccc4[nH]3)c2)c1 [Compound 108],MIC50,E. coli (25922),6.25 µg/mL
same,MIC50,S. aureus (27660),1.56 µg/mL
same,MIC50,E. faecalis (29212),12.5 µg/mL
same,MIC50,K. pneumoniae (13883),> 50 µg/mL
same,MIC50,P. aeruginosa (10145),25 µg/mL
N=C(N)NCCCOc1cc(OCCCNC(=N)N)cc(-c2cccc(-c3cc(OCCCNC(=N)N)cc(OCCCNC(=N)N)c3)c2)c1 [Compound 109],MIC50,E. coli (25922),1.56 µg/mL
same,MIC50,S. aureus (27660),0.4 µg/mL
same,MIC50,E. faecalis (29212),1.56 µg/mL
same,MIC50,K. pneumoniae (13883),6.25 µg/mL
same,EC50,NIH/3T3 cells,69 µg/mL
same,MIC50,P. aeruginosa (10145),12.5 µg/mL
Cc1ccc(-c2cc(-c3cc(OCCCN)cc(OCCCN)c3)cc(-c3cc(OCCCN)cc(OCCCN)c3)c2)cc1 [Compound 110],MIC50,E. coli (25922),3.13 µg/mL
same,MIC50,S. aureus (27660),0.78 µg/mL
same,MIC50,E. faecalis (29212),1.56 µg/mL
same,MIC50,K. pneumoniae (13883),6.25 µg/mL
same,EC50,NIH/3T3 cells,129 µg/mL
same,MIC50,P. aeruginosa (10145),25 µg/mL
CC(C)(C)c1ccc(-c2cc(-c3cc(OCCCN)cc(OCCCN)c3)cc(-c3cc(OCCCN)cc(OCCCN)c3)c2)cc1 [Compound 113],MIC50,E. coli (25922),3.13 µg/mL
same,MIC50,S. aureus (27660),1.56 µg/mL
same,MIC50,E. faecalis (29212),1.56 µg/mL
same,MIC50,K. pneumoniae (13883),3.13 µg/mL
same,EC50,NIH/3T3 cells,99.5 µg/mL
same,MIC50,P. aeruginosa (10145),12.5 µg/mL
N=C(N)NCCCOc1cc(OCCCNC(=N)N)cc(-c2cc(-c3ccccc3)cc(-c3cc(OCCCNC(=N)N)cc(OCCCNC(=N)N)c3)c2)c1 [Compound 114],MIC50,E. coli (25922),1.56 µg/mL
same,MIC50,S. aureus (27660),0.78 µg/mL
same,MIC50,E. faecalis (29212),3.13 µg/mL
same,MIC50,K. pneumoniae (13883),1.56 µg/mL
same,EC50,NIH/3T3 cells,33.6 µg/mL
same,MIC50,P. aeruginosa (10145),12.5 µg/mL
same,EC50,HepG2,40.4 µg/mL
N=C(N)NCCCOc1cc(OCCCNC(=N)N)cc(-c2ccc3ccc(-c4cc(OCCCNC(=N)N)cc(OCCCNC(=N)N)c4)cc3c2)c1 [Compound 117],MIC50,E. coli (25922),1.56 µg/mL
same,MIC50,S. aureus (27660),1.56 µg/mL
same,MIC50,E. faecalis (29212),0.78 µg/mL
same,MIC50,K. pneumoniae (13883),1.56 µg/mL
same,EC50,NIH/3T3 cells,31.6 µg/mL
same,MIC50,P. aeruginosa (10145),12.5 µg/mL
